Where a SMILES comes first, the peptide text is derived from it. The star is where a group is joined. X1 = O=C(CCCCCCCCCCS)NCCCOCCOCCOCCCN*
Assay: Stability of peptides in human serum
Assay type: in vitro ADME

CC(=O)N[C@@H](CC(=O)O)C(=O)N[C@@H](CC(C)C)C(=O)N[C@@H](Cc1c[nH]c2ccccc12)C(=O)N[C@@H](CCCCN)C(=O)N[C@@H](CC(C)C)C(=O)NCCCOCCOCCOCCCNC(=O)CCCCCCCCCCS [Compound 1] (Ac-DLWKL-X1; C-terminus assumed)
half-life: 17.5 min
